Laboratory results: US20200256882A1, “FLUID PROPERTY MEASUREMENT DEVICES AND METHODS” (Abram Scientific, Inc., priority 2019, published 2020)
Like-named read-outs stand apart in the source and are kept apart here. Positions of bridges follow the written chain, without caps; N, C: chain ends. Non-standard residues stand in square brackets, D forms with d. Residues, ends and D or L forms follow the SMILES beside them. hArg = N=C(N)NCCCC[C@H](N)C(=O)O; Mpa = O=C(O)CCS

Experiments:
[1] = system: whole blood samples (extrinsic coagulation pathway); experiment: Thromboelastogram (TEG) coagulation test on disposable test strip; format: biochemical; conditions: for peak / maximum thrombin generation (ThrombinPeak): blood samples with increasing concentrations of the anticoagulant (heparin 0 to 3 IU/ml); for clot formation time (R): blood samples with increasing concentrations of the anticoagulant, FIG. 20(a), 21(a); for clot stiffness G: blood samples with increasing concentrations of the substance (cleavable fibrinogen 42 to 231 mg/dL); for ratio of the normalized ThrombinPeak and clot stiffness G: tested samples with increasing anticoagulant concentrations, FIG. 22(d)
Protocol: The disposable test strips used in this example were incorporated with a reagent comprising of rabbit brain thromboplastin (Pacific Hemostasis Prothrombin Time reagent, Thromboplastin-DS, Product# 29-227-3), calcium chloride (25 mM) and Tween (2% v/v aqueous solution). Prior to the final assembly of the strip, the reagent was incorporated by dispensing the solution on to the exposed hydrophilic surface in the bottom stack, followed by air-drying in a drying box with humidity control at standard room temperature and pressure. The ratio of the volume of the reagent to blood tested in the chamber was maintained at close to 2:1 to ensure successful initiation of the blood coagulation reaction. […] In this example, venous whole blood and finger-stick, capillary whole blood samples from a normal subject were used. In addition, finger-stick, capillary whole blood samples from patients undergoing warfarin therapy at an anticoagulation clinic were used. Following procurement of informed consent under an Institutional Review Board (IRB) approved protocol, phlebotomy was performed to extract the blood sample by venipuncture and the sample was directly dispensed into blood collection tubes containing sodium citrate anticoagulant. The citrated whole blood samples were contrived in vitro to incorporate varying amounts of unfractionated heparin (0 to 3 IU/ml), cleavable fibrinogen (42 to 231 mg/dL), Eptifibatide (GPIIb/IIIa platelet inhibitor, 0 to 12 μg/mL), and tissue plasminogen activator (tPA, 0 to 1.8 nM). Further in some tests, following procurement of informed consent under an Institutional Review Board (IRB) approved protocol, a standard lancet was used to extract blood samples by finger-stick and a standard microliter pipette or dropper was used to pick up the sample for insertion into the disposable test strip. Lastly, in some tests, blood samples were also tested using 2 Haemonetics' TEG-5000 instruments (2 tests per instrument) and their corresponding TEG curve & parameters were recorded, in order to perform side-by-side comparison with the results generated using the disposable test strips. Results: • In this example, the oscillation characteristics (amplitude and phase) of the in-plane vibration mode of a physical element in single-use disposable test strips were measured as a function of frequency in the vicinity of the resonance frequency, and these amplitude & phase frequency scans were monitored periodically to determine different aspects of the blood coagulation cascade. The blood sample upon entering the chamber reacted with the dried reagent and started to coagulate through the extrinsic coagulation pathway. An example of the amplitude and phase frequency scans of an oscillating physical element in a disposable test strip with a blood sample in the chamber undergoing coagulation is shown in FIGS. 13(a) and 13(b), respectively, wherein the amplitude and phase at the resonance frequency peak are seen to decrease in magnitude as the blood coagulation cascade progresses. These amplitude and phase frequency scans monitored periodically over time were used to perform a Thromboelastogram (TEG) test, wherein a characteristic […] shaped viscoelastic curve and parameters were extracted. The TEG-like viscoelastic parameters extracted were clot formation time (R), activated clotting time (ACT), maximum thrombin generation (ThrombinPeak), clot stiffness (G), platelet contraction rate (Plt-Cont), and fibrinolysis rate (Lys-Rate). A mathematical model of the viscoelastic oscillation damping of the physical element, which incorporated the different kinetic processes in the coagulation cascade, was used to fit to data from the amplitude and phase frequency scans measured as a function of time. […]

[2] = system: venous whole blood samples (intrinsic coagulation pathway); experiment: High range activated clotting time (ACT) coagulation test on disposable test strip; format: biochemical; conditions: citrated venous whole blood spiked in vitro, 1.0 to 5.0 IU/ml; FIG. 12, R^2=0.95
Protocol: (§1) The disposable test strips used in this example were incorporated with a reagent comprising of kaolin suspended in distilled water, calcium chloride (25 mM) and Tween (2% v/v aqueous solution). Prior to the final assembly of the strip, the reagent was incorporated by dispensing the solution on to the exposed hydrophilic surface in the bottom stack, followed by air-drying in a drying box with humidity control at standard room temperature and pressure. […]
(§2) Results: • In this example, the oscillation characteristics (e.g., amplitude) of the in-plane mode of a physical element in single-use disposable test strips were monitored and recorded before and after introduction of the blood sample, in order to measure the change in viscosity and viscoelasticity of the blood sample as a function of time as it undergoes coagulation. […] An algorithm was used to track the measured oscillation characteristics, viscosity and/or viscoelasticity as a function of time and identify a time to clot formation (measured starting from blood sample insertion time, t=0), in other words known as the activated clotting time (ACT). […] In this specific example, the ACT clotting time measured corresponds to a high-range ACT measurement given the system's sensitivity from 1.0 to 5.0 IU/ml, which corresponds to the high range of heparin therapy used during cardiac and hepatic surgeries.

[3] = system: venous whole blood samples (intrinsic coagulation pathway); experiment: Activated partial thromboplastin time (aPTT) coagulation test on disposable test strip; format: biochemical; conditions: citrated venous whole blood spiked in vitro, 0.0 to 1.0 IU/ml; FIG. 10, R^2=0.92
Protocol: as §1, with “Actin-FS activated partial thromboplastin time reagent (Siemens Diagnostics, Catalog# B4218-20),” for “kaolin suspended in distilled water,”, “pressure. The ratio of the volume of the reagent to blood tested in the chamber was maintained at close to 2:1 to ensure successful initiation of the blood coagulation reaction.” for “pressure.”
In this example, the oscillation characteristics (e.g., amplitude) of the in-plane mode of a physical element in single-use disposable test strips were monitored and recorded before and after introduction of the blood sample, in order to measure the change in viscosity and viscoelasticity of the blood sample as a function of time as it undergoes coagulation. […] An algorithm was used to track the measured oscillation characteristics, viscosity and/or viscoelasticity as a function of time and identify a time to clot formation (measured starting from blood sample insertion time, t=0), in other words known as the partial thromboplastin time (aPTT). […]

[4] = system: venous whole blood samples (intrinsic coagulation pathway); experiment: Low range activated clotting time (ACT) coagulation test on disposable test strip; format: biochemical; conditions: citrated venous whole blood spiked in vitro, 0.0 to 3.0 IU/ml; FIG. 11, R^2=0.99
Protocol: as §1
as §2, with “low-range” for “high-range”, “0.0” for “1.0”, “3.0” for “5.0”, “low” for “high”

[5] = Protocol: Ethylene glycol solutions were prepared using de-ionized water in varying concentrations ranging from 0 to 40.38% as shown in Table I. The solutions were prepared in 20 ml de-ionized water and corresponding volume of ethylene glycol solutions concentrations. The fluid sample, when introduced into the assembled disposable test strip through the inlet port (i.e. rectangular opening 207 in FIG. 2(a)), wicked into the chamber under the region of the substrate layer leading up to the suspended beam, followed by the fluid flow being directed through the chamber along the beam length while maintaining contact with the underside of the beam (at or slightly beyond its width), and finally, flowing through the chamber under the region of the substrate layer past the beam leading up to the vent port (i.e. rectangular opening 208 in FIG. 2(a)), which permits air to escape from the chamber as it is loaded with the fluid sample.
[6] = 16.22 % v/v in de-ionized water
[7] = 40.38 % v/v in de-ionized water
[8] = 3 warfarin patient samples, increasing warfarin activity, FIG. 15

Question: What does the source list for `O=C(NC[C@H]1CN(c2ccc(N3CCOCC3=O)cc2)C(=O)O1)c1ccc(Cl)s1` [Rivaroxaban]?
Answer: peak / maximum thrombin generation (ThrombinPeak) [1]: reducing; clot formation time (R) [1]: increasing linear trend; clot stiffness G [1]: limited to no effect; ratio of the normalized ThrombinPeak and clot stiffness G [1]: decreasing linear trend

Question: With Dabigatran as the molecule, how does the “peak / maximum thrombin generation (ThrombinPeak)” value [1] read?
Answer: The value was “limited to no effect”.

Question: What about the “clot formation time (R)” value [1] of the same molecule?
Answer: Its value is “increasing linear trend”.

Question: What about the “clot stiffness G” value [1] of the same molecule?
Answer: Its value is “reducing”.

Question: And the “ratio of the normalized ThrombinPeak and clot stiffness G” value [1]?
Answer: Its value is “increasing”.

Question: With `N=C(N)NCCCC[C@@H]1NC(=O)CCSSC[C@@H](C(N)=O)NC(=O)[C@@H]2CCCN2C(=O)[C@H](Cc2c[nH]c3ccccc23)NC(=O)[C@H](CC(=O)O)NC(=O)CNC1=O` [Eptifibatide] ([Mpa][hArg]GDWPC-NH2; disulfide 1-7) as the molecule, how does the “rate of platelet contraction (Plt-Cont)” value ([1]; blood samples with increasing concentrations, 0 to 12 μg/mL, FIG. 18(b)) read?
Answer: The value was “decreasing trend”.

Question: For heparin, which “peak / maximum thrombin generation (ThrombinPeak)” value [1] is on record?
Answer: The value was “decrease”.

Question: And the “activated clotting time (ACT), time to peak thrombin generation” value ([1]; blood samples with increasing heparin concentrations from 0 to 3 IU/ml, FIG. 16)?
Answer: Its value is “increase”.

Question: What about the “uncalibrated ACT clotting time (high-range)” value [2] of the same molecule?
Answer: Its value is “linear dose response”.

Question: And the “uncalibrated aPTT clotting time” value [3]?
Answer: The value was “linear dose response”.

Question: What about the “uncalibrated ACT clotting time (low-range)” value [4] of the same molecule?
Answer: The value was “linear dose response”.

Question: With `OCCO` [Ethylene Glycol, ethylene glycol] as the molecule, how does the Density ([5]; 10 % v/v in de-ionized water) read?
Answer: The Density was 1.035 gm/cc.

Question: And the Viscosity ([5]; 10 % v/v in de-ionized water)?
Answer: The Viscosity was 1.9903 cP.

Question: What about the Density [5, 6] of the same molecule?
Answer: The Density was 1.052 gm/cc.

Question: What about the Viscosity [5, 6] of the same molecule?
Answer: Its Viscosity is 2.7938 cP.

Question: And the Density ([5]; 22.5 % v/v in de-ionized water)?
Answer: Its Density is 1.065 gm/cc.

Question: And the Viscosity ([5]; 22.5 % v/v in de-ionized water)?
Answer: Its Viscosity is 3.711 cP.

Question: And the Density [5, 7]?
Answer: The Density was 1.088 gm/cc.

Question: And the Viscosity [5, 7]?
Answer: Its Viscosity is 6.8247 cP.

Question: With `CC(=O)CC(c1ccccc1)c1c(O)c2ccccc2oc1=O` (stereo not shown) [warfarin] as the molecule, how does the maximum thrombin generation ([1]; 3 warfarin patient samples, increasing warfarin activity (PT 17.4, 36.4, 54.4 seconds), FIG. 15) read?
Answer: The maximum thrombin generation was “steady decrease”.

Question: What about the “time to maximum fibrin formation (TMA)” value [1, 8] of the same molecule?
Answer: Its value is “delayed”.

Question: What about the “time to maximum thrombin generation (analogous to the ACT)” value [1, 8] of the same molecule?
Answer: Its value is “delayed”.
